Measurements: US11427548B2 (Arvinas Operations, Inc., priority 2015, dated 2022)

What was measured:
Androgen Receptor [1] = target: T1, Androgen Receptor (Homo sapiens, UniProt P10275); experiment: Androgen Receptor ELISA assay (PathScan AR ELISA) in VCaP cells: AR degradation, Dmax and DC50; format: cell-based; conditions: for Dmax: VCaP, read-out: VCaP Dmax (%); for DC50: read-out: VCaP DC50, concentration that caused 50% Androgen Receptor degradation, VCaP cells
T1 construct: endogenous in cells; host or cells: VCaP cells
T1 sequence (P10275 1-920): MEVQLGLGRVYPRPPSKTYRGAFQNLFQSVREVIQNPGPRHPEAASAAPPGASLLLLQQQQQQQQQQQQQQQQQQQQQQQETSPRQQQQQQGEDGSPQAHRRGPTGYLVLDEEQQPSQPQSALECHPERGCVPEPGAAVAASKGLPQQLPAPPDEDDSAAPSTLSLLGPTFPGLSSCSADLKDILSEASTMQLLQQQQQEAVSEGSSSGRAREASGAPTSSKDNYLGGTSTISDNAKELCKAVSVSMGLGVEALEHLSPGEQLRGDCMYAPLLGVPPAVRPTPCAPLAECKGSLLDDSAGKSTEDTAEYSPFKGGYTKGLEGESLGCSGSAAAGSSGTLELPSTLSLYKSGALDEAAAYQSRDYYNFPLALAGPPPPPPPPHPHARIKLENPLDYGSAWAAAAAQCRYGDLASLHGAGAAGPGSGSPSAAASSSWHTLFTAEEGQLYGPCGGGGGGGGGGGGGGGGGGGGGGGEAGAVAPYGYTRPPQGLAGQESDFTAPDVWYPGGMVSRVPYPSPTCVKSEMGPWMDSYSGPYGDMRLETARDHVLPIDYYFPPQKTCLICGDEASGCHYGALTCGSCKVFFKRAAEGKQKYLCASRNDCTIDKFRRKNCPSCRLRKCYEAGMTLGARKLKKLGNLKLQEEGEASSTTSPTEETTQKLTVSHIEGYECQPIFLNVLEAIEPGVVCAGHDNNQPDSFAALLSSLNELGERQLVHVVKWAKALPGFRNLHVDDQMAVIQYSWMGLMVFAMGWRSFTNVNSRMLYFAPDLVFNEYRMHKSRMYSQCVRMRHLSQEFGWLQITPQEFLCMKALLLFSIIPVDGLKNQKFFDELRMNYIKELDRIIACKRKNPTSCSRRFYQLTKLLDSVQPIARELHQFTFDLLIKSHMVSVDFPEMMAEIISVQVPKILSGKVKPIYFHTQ
In short: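 After 24 h exposure of VCaP cells (charcoal-stripped serum, 0.1 nM R1881 agonist, 0.1% DMSO) to seven half-log compound concentrations, residual AR in lysates was measured by PathScan ELISA (TMB absorbance, 450 nm). Cells were plated at 30,000/well and grown at least 3 days beforehand.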

Androgen Receptor [2] = target: T2, Androgen Receptor (Homo sapiens, UniProt P10275+P40337, T878A); experiment: Androgen Receptor ELISA assay (PathScan AR ELISA) in LNCaP cells: AR degradation, Dmax and DC50; format: cell-based; conditions: for DC50: concentration that caused 50% Androgen Receptor degradation; for Dmax: highest percentage of Androgen Receptor degradation observed
T2 construct: Compounds have been evaluated in this assay in LNCaP and/or VCaP cells utilizing similar protocols; endogenous in cells; host or cells: LNCaP cells
T2 sequence (P10275 whole entry T878A): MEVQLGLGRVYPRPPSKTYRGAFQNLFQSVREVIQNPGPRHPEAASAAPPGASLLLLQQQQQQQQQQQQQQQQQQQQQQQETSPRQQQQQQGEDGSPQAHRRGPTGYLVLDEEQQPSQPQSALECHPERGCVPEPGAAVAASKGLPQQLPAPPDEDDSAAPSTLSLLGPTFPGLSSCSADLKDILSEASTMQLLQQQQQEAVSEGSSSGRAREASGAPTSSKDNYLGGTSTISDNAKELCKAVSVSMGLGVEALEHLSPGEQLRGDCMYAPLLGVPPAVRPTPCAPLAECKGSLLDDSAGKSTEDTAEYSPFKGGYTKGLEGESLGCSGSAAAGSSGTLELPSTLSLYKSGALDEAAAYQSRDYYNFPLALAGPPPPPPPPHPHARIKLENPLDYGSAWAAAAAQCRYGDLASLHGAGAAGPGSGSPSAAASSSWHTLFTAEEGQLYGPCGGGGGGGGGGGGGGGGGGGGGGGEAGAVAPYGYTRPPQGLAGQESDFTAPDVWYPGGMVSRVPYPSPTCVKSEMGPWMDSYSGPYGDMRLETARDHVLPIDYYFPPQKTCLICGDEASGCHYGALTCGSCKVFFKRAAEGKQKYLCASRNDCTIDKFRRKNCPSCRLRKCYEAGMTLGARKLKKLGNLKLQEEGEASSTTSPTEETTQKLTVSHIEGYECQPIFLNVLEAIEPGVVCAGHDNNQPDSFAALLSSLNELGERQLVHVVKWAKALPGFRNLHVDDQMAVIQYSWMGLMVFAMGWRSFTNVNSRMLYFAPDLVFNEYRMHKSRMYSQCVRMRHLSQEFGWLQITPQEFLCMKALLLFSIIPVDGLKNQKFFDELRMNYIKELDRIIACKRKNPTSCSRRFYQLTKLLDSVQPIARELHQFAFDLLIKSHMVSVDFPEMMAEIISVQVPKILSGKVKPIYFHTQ
T2 sequence (P40337 whole entry): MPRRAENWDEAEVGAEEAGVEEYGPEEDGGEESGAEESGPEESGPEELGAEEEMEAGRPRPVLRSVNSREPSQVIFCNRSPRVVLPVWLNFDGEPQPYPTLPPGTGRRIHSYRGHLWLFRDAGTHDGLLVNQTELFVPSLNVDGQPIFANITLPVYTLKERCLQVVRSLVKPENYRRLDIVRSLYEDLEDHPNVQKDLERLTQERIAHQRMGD
T2 sequence (Q15369 whole entry partner): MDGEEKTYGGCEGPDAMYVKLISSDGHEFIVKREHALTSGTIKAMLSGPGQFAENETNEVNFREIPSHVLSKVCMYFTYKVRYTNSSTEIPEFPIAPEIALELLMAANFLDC
T2 sequence (Q15370 whole entry partner): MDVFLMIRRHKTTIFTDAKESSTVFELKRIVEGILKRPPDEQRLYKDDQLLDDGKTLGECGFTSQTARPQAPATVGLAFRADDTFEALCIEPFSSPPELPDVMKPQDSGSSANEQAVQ

| Compound | Dmax (Androgen Receptor [1]) [%] | DC50 (Androgen Receptor [2]) [nM] | Dmax (Androgen Receptor [2]) [%] | DC50 (Androgen Receptor [1]) [nM] |
| --- | --- | --- | --- | --- |
| Cc1ncsc1-c1ccc(CNC(=O)[C@@H]2C[C@@H](O)CN2C(=O)[C@@H](NC(=O)CCCOCC#CC#CCOc2ccc(N3C(=S)N(c4ccc(C#N)c(C(F)(F)F)c4)C(=O)C3(C)C)cc2)C(C)(C)C)cc1 [Example 56, (2S,4R)-1-[(2S)-2-(4-{[6-(4-{3-[4-cyano-3-(trifluoromethyl)phenyl]-5,5-dimethyl-4-oxo-2-sulfanylideneimidazolidin-1-yl}phenoxy)hexa-2,4-diyn-1-yl]oxy}butanamido)-3,3-dimethylbutanoyl]-4-hydroxy-N-{[4-(4-methyl-1,3-thiazol-5-yl)phenyl]methyl}pyrrolidine-2-carboxamide] | < 25 | > 501 | 26 to 50 |  |
| Cc1ncsc1-c1ccc(CNC(=O)[C@@H]2C[C@@H](O)CN2C(=O)[C@@H](NC(=O)COCCCCCNC(=O)CCCc2ccc(N3C(=S)N(c4ccc(C#N)c(C(F)(F)F)c4)C(=O)C3(C)C)cc2)C(C)(C)C)cc1 [Example 63, (2S,4R)-1-[(2S)-2-[2-({5-[4-(4-{3-[4-cyano-3-(trifluoromethyl)phenyl]-5,5-dimethyl-4-oxo-2-sulfanylideneimidazolidin-1-yl}phenyl)butanamido]pentyl}oxy)acetamido]-3,3-dimethylbutanoyl]-4-hydroxy-N-{[4-(4-methyl-1,3-thiazol-5-yl)phenyl]methyl}pyrrolidine-2-carboxamide] | 26 to 50 | 51 to 500 | > 71 | < 50 |
| Cc1ncsc1-c1ccc(CNC(=O)[C@@H]2C[C@@H](O)CN2C(=O)[C@@H](NC(=O)COCCCCCN(C)C(=O)CCCc2ccc(N3C(=S)N(c4ccc(C#N)c(C(F)(F)F)c4)C(=O)C3(C)C)cc2)C(C)(C)C)cc1 [Example 65, (2S,4R)-1-[(2S)-2-[2-({5-[4-(4-{3-[4-cyano-3-(trifluoromethyl)phenyl]-5,5-dimethyl-4-oxo-2-sulfanylideneimidazolidin-1-yl}phenyl)-N-methylbutanamido]pentyl}oxy)acetamido]-3,3-dimethylbutanoyl]-4-hydroxy-N-{[4-(4-methyl-1,3-thiazol-5-yl)phenyl]methyl}pyrrolidine-2-carboxamide] | 51 to 70 | 51 to 500 | 51 to 70 | < 50 |
| Cc1ncsc1-c1ccc(CNC(=O)[C@@H]2C[C@@H](O)CN2C(=O)[C@@H](NC(=O)OCCOCCOc2ccc(-c3ccc(N4C(=S)N(c5ccc(C#N)c(C(F)(F)F)c5)C(=O)C4(C)C)cc3)cc2)C(C)(C)C)cc1 [Example 66, 2-(2-(4′-(3-(4-cyano-3-(trifluoromethyl)phenyl)-5,5-dimethyl-4-oxo-2-thioxoimidazolidin-1-yl)biphenyl-4-yloxy)ethoxy)ethyl (S)-1-((2S,4R)-4-hydroxy-2-(4-(4-methylthiazol-5-yl)benzylcarbamoyl)pyrrolidin-1-yl)-3,3-dimethyl-1-oxobutan-2-ylcarbamate] | 26 to 50 | 51 to 500 | 51 to 70 | 51 to 500 |
| Cc1ncsc1-c1ccc(CNC(=O)[C@@H]2C[C@@H](O)CN2C(=O)[C@@H](NC(=O)COCCOCCOc2ccc(-c3ccc(N4C(=S)N(c5ccc(C#N)c(C(F)(F)F)c5)C(=O)C4(C)C)cc3)cc2)C(C)(C)C)cc1 [Example 67, (2S,4R)-1-((S)-2-(2-(2-(2-(4′-(3-(4-cyano-3-(trifluoromethyl)phenyl)-5,5-dimethyl-4-oxo-2-thioxoimidazolidin-1-yl)biphenyl-4-yloxy)ethoxy)ethoxy)acetamido)-3,3-dimethylbutanoyl)-4-hydroxy-N-(4-(4-methylthiazol-5-yl)benzyl)pyrrolidine-2-carboxamide] | 26 to 50 | < 50 | > 71 | < 50 |
| Cc1ncsc1-c1ccc(CNC(=O)[C@@H]2C[C@@H](O)CN2C(=O)[C@@H](NC(=O)CCCCOc2ccc(-c3ccc(N4C(=S)N(c5ccc(C#N)c(C(F)(F)F)c5)C(=O)C4(C)C)cc3)cc2)C(C)(C)C)cc1 [Example 69, (2S,4R)-1-[(2S)-2-{5-[4-(4-{3-[4-cyano-3-(trifluoromethyl)phenyl]-5,5-dimethyl-4-oxo-2-sulfanylideneimidazolidin-1-yl}phenyl)phenoxy]pentanamido}-3,3-dimethylbutanoyl]-4-hydroxy-N-{[4-(4-methyl-1,3-thiazol-5-yl)phenyl]methyl}pyrrolidine-2-carboxamide] | 26 to 50 | 51 to 500 | > 71 | 51 to 500 |
| Cc1ncsc1-c1ccc(CNC(=O)[C@@H]2C[C@@H](O)CN2C(=O)[C@@H](NC(=O)CCOCCOc2ccc(-c3ccc(N4C(=S)N(c5ccc(C#N)c(C(F)(F)F)c5)C(=O)C4(C)C)cc3)cc2)C(C)(C)C)cc1 [Example 70, (2S,4R)-1-[(2S)-2-(3-{2-[4-(4-{3-[4-cyano-3-(trifluoromethyl)phenyl]-5,5-dimethyl-4-oxo-2-sulfanylideneimidazolidin-1-yl}phenyl)phenoxy]ethoxy}propanamido)-3,3-dimethylbutanoyl]-4-hydroxy-N-{[4-(4-methyl-1,3-thiazol-5-yl)phenyl]methyl}pyrrolidine-2-carboxamide] | 26 to 50 | < 50 | > 71 | < 50 |
| Cc1ncsc1-c1ccc(CNC(=O)[C@@H]2C[C@@H](O)CN2C(=O)[C@@H](NC(=O)COCCCCCOc2ccc(-c3ccc(N4C(=S)N(c5ccc(C#N)c(C(F)(F)F)c5)C(=O)C4(C)C)cc3)cc2)C(C)(C)C)cc1 [Example 71, (2S,4R)-1-[(2S)-2-[2-({5-[4-(4-{3-[4-cyano-3-(trifluoromethyl)phenyl]-5,5-dimethyl-4-oxo-2-sulfanylideneimidazolidin-1-yl}phenyl)phenoxy]pentyl}oxy)acetamido]-3,3-dimethylbutanoyl]-4-hydroxy-N-{[4-(4-methyl-1,3-thiazol-5-yl)phenyl]methyl}pyrrolidine-2-carboxamide] | 51 to 70 | < 50 | > 71 | < 50 |
| Cc1ncsc1-c1ccc(CNC(=O)[C@@H]2C[C@@H](O)CN2C(=O)[C@@H](NC(=O)COCCOCCOc2ccc(-c3ccc(N4C(=S)N(c5ccc(C#N)c(C(F)(F)F)c5)C(=O)C4(C)C)cc3F)cc2)C(C)(C)C)cc1 [Example 73, (2S,4R)-1-[(2S)-2-[2-(2-{2-[4-(4-{3-[4-cyano-3-(trifluoromethyl)phenyl]-5,5-dimethyl-4-oxo-2-sulfanylideneimidazolidin-1-yl}-2-fluorophenyl)phenoxy]ethoxy}ethoxy)acetamido]-3,3-dimethylbutanoyl]-4-hydroxy-N-{[4-(4-methyl-1,3-thiazol-5-yl)phenyl]methyl}pyrrolidine-2-carboxamide] | 51 to 70 | < 50 | > 71 | < 50 |
| Cc1ncsc1-c1ccc(CNC(=O)[C@@H]2C[C@@H](O)CN2C(=O)[C@@H](NC(=O)OCCCCCOc2ccc(-c3ccc(N4C(=S)N(c5ccc(C#N)c(C(F)(F)F)c5)C(=O)C4(C)C)cc3)cc2)C(C)(C)C)cc1 [Example 74, 5-[4-(4-{3-[4-cyano-3-(trifluoromethyl)phenyl]-5,5-dimethyl-4-oxo-2-sulfanylideneimidazolidin-1-yl}phenyl)phenoxy]pentyl N-[(2S)-1-[(2S,4R)-4-hydroxy-2-({[4-(4-methyl-1,3-thiazol-5-yl)phenyl]methyl}carbamoyl)pyrrolidin-1-yl]-3,3-dimethyl-1-oxobutan-2-yl]carbamate] | 26 to 50 | < 50 | > 71 | < 50 |
